Drawing on US20250206730A1 (AUTOTELIC BIO INC., priority 2022, published 2025), this text covers IC50 for 30 compounds.

The target of experiment [1] is T1, ALK5 kinase (Homo sapiens, UniProt P36897).
T1 sequence (P36897 34-503): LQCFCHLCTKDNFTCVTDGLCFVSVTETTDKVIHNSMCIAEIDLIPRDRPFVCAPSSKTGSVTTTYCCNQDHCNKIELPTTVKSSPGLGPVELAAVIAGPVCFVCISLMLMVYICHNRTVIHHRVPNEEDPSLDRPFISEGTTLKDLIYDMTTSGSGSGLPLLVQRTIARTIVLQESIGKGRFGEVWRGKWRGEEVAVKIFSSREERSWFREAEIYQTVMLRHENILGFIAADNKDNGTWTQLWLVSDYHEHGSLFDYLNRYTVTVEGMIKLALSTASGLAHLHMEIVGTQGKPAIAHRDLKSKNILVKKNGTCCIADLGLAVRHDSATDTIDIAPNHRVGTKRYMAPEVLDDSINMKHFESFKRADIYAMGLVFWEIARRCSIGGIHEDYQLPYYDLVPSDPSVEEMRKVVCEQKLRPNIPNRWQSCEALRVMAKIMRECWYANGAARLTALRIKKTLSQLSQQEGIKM
Description: LanthaScreen Eu Kinase Binding Assay. The following applies: Kinase Tracer 178, Eu-anti-GST Antibody, read-out: IC50 Enzyme. A digest of the protocol: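 Tracer-displacement TR-FRET: after 30 min RT compound–kinase preincubation, Eu-labelled anti-GST antibody plus Kinase Tracer 178 were incubated 60 min at RT. Binding was read as a lower 665 nm/615 nm emission ratio (excitation 340 nm).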
On the technique in general: TR-FRET usually uses a lanthanide donor and a delayed reading to cut background.

In experiment [2] the test system is TGF-β signaling. The experiment is described as follows: Assay for evaluating cellular inhibition of TGF-β signaling, 4T1 (SBE-luc2P) luciferase reporter. The experiment is classed as cell-based. To be noted: Mus musculus, 4T1, 4T1 (SBE-luc2P) transient pool, 0.2% FBS, 2 h pre-treatment, TGF-β1 2 ng/mL 24 h; read-out: IC50 4T1 Cell. A digest of the protocol:
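Luminescence from SMAD-binding-element luciferase was measured after 24 h of 2 ng/mL TGF-β1 at 37 °C, following 2 h compound pre-treatment. HEK293 stable reporter cells were used at 2.5×10^4/well in 0.5% FBS (~80% confluent); the 4T1 SBE-luc2P transient pool at 6×10^3/well in 0.2% FBS (~60% confluent).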

As usually defined, the IC50 is the concentration that gives 50% inhibition. Consider `CNC(=O)c1ccc(Nc2cc(Oc3sc(C(F)(F)F)nc3-c3ccccc3)ccn2)nc1` [A-150, N-Methyl-6-((4-((4-phenyl-2-(trifluoromethyl)thiazol-5-yl)oxy)pyridin-2-yl)amino)nicotinamide], for which the IC50 in experiment [1] and in experiment [2] was under 100 nM each time.
As for `O=C(O)c1cccc(Nc2cc(Oc3sc(C(F)(F)F)nc3-c3ccccc3)ccn2)c1` [A-151, 3-((4-((4-Phenyl-2-(trifluoromethyl)thiazol-5-yl)oxy)pyridin-2-yl)amino)benzoic acid], the IC50 in experiment [1] was under 100 nM; in experiment [2], over 100 nM.
Regarding `O=C(O)c1ccc(Nc2cc(Oc3sc(C(F)(F)F)nc3-c3ccccc3)ccn2)cc1` [A-152, 4-((4-((4-Phenyl-2-(trifluoromethyl)thiazol-5-yl)oxy)pyridin-2-yl)amino)benzoic acid], the IC50 in experiment [1] and in experiment [2] was under 100 nM in each case.
Regarding `CN(C)c1nc(-c2ccccc2)c(Oc2ccnc(Nc3cccc(C(C)(C)O)c3)c2)s1` [A-153, 2-(3-((4-((2-(Dimethylamino)-4-phenylthiazol-5-yl)oxy)pyridin-2-yl)amino)phenyl)propan-2-ol], the IC50 in experiment [1] is under 100 nM; in experiment [2], over 100 nM.
Turning to `CN(C)c1nc(-c2ccccc2)c(Oc2ccnc(Nc3cccc(S(N)(=O)=O)c3)c2)s1` [A-154, 3-((4-((2-(Dimethylamino)-4-phenylthiazol-5-yl)oxy)pyridin-2-yl)amino)benzenesulfonamide], the IC50 in experiment [1] was under 100 nM; in experiment [2], over 100 nM.
The corresponding values for `CN(C)c1nc(-c2ccccc2)c(Oc2ccnc(Nc3cccc(C(N)=O)c3)c2)s1` [A-155, 3-((4-((2-(Dimethylamino)-4-phenylthiazol-5-yl)oxy)pyridin-2-yl)amino)benzamide] are under 100 nM and under 100 nM.
`CN(C)c1nc(-c2ccccc2)c(Oc2ccnc(Nc3ccc(S(N)(=O)=O)cc3)c2)s1` [A-156, 4-((4-((2-(Dimethylamino)-4-phenylthiazol-5-yl)oxy)pyridin-2-yl)amino)benzenesulfonamide]: the results for the IC50 in experiment [1] and in experiment [2] were under 100 nM and over 100 nM, respectively.
Turning to `CN(C)c1nc(-c2ccccc2)c(Oc2ccnc(Nc3ccc(C(N)=O)cc3)c2)s1` [A-157, 4-((4-((2-(Dimethylamino)-4-phenylthiazol-5-yl)oxy)pyridin-2-yl)amino)benzamide], the IC50 in experiment [1] and in experiment [2] was under 100 nM throughout.
Take `CN(C)c1nc(-c2ccccc2)c(Oc2ccnc(Nc3ccnc(C(C)(C)O)c3)c2)s1` [A-158, 2-(4-((4-((2-(Dimethylamino)-4-phenylthiazol-5-yl)oxy)pyridin-2-yl)amino)pyridin-2-yl)propan-2-ol]: the IC50 in experiment [1] was under 100 nM; in experiment [2] it was over 100 nM.
As to `CN(C)c1nc(-c2ccccc2)c(Oc2ccnc(Nc3ccc(C(C)(C)O)nc3)c2)s1` [A-159, 2-(5-((4-((2-(Dimethylamino)-4-phenylthiazol-5-yl)oxy)pyridin-2-yl)amino)pyridin-2-yl)propan-2-ol], the IC50 in experiment [1] was under 100 nM; in experiment [2], over 100 nM.
On to `CN(C)c1nc(-c2ccccc2)c(Oc2ccnc(Nc3cccc(C(N)=O)n3)c2)s1` [A-160, 6-((4-((2-(Dimethylamino)-4-phenylthiazol-5-yl)oxy)pyridin-2-yl)amino)picolinamide], for which the IC50 in experiment [1] and in experiment [2] was under 100 nM throughout.
Regarding `CNC(=O)c1cccc(Nc2cc(Oc3sc(N(C)C)nc3-c3ccccc3)ccn2)n1` [A-161, 6-((4-((2-(Dimethylamino)-4-phenylthiazol-5-yl)oxy)pyridin-2-yl)amino)-N-methylpicolinamide], the IC50 in experiment [1] and in experiment [2] was under 100 nM throughout.
As for `CN(C)c1nc(-c2ccccc2)c(Oc2ccnc(Nc3ccc(C(N)=O)cn3)c2)s1` [A-163, 6-((4-((2-(Dimethylamino)-4-phenylthiazol-5-yl)oxy)pyridin-2-yl)amino)nicotinamide], the IC50 in experiment [1] and in experiment [2] was under 100 nM each time.
Regarding `CNC(=O)c1ccc(Nc2cc(Oc3sc(N(C)C)nc3-c3ccccc3)ccn2)cc1` [A-164, 4-((4-((2-(Dimethylamino)-4-phenylthiazol-5-yl)oxy)pyridin-2-yl)amino)-N-methylbenzamide], the IC50 in experiment [1] was under 100 nM; in experiment [2], over 100 nM.
Take `CN(C)c1nc(-c2ccccc2)c(Oc2ccnc(Nc3ccc(C(=O)O)cn3)c2)s1` [A-165, 6-((4-((2-(Dimethylamino)-4-phenylthiazol-5-yl)oxy)pyridin-2-yl)amino)nicotinic acid]: the IC50 in experiment [1] and in experiment [2] was under 100 nM in each case.
Consider `CNC(=O)c1ccc(Nc2cc(Oc3sc(N(C)C)nc3-c3ccccc3)ccn2)nc1` [A-166, 6-((4-((2-(Dimethylamino)-4-phenylthiazol-5-yl)oxy)pyridin-2-yl)amino)-N-methylnicotinamide], for which the IC50 in experiment [1] and in experiment [2] was under 100 nM each time.
`CN(C)c1nc(-c2ccccc2)c(Oc2ccnc(Nc3cccc(C(=O)O)c3)c2)s1` [A-167, 3-((4-((2-(Dimethylamino)-4-phenylthiazol-5-yl)oxy)pyridin-2-yl)amino)benzoic acid]: the IC50 was under 100 nM in experiment [1] and over 100 nM in experiment [2].
`CN(C)c1nc(-c2ccccc2)c(Oc2ccnc(Nc3ccc(C(=O)O)cc3)c2)s1` [A-168, 4-((4-((2-(Dimethylamino)-4-phenylthiazol-5-yl)oxy)pyridin-2-yl)amino)benzoic acid]: the IC50 in experiment [1] and in experiment [2] was under 100 nM each time.
Consider `CN(C)c1nc(-c2ccccc2)c(Oc2ccnc(Nc3cccc(C(=O)O)n3)c2)s1` [A-169, 6-((4-((2-(Dimethylamino)-4-phenylthiazol-5-yl)oxy)pyridin-2-yl)amino)picolinic acid], for which the IC50 was under 100 nM in experiment [1] and over 100 nM in experiment [2].
As for `COC(=O)c1cccc(Nc2cc(Oc3sc(Br)nc3-c3ccccc3)ccn2)c1` [A-170, Methyl 3-((4-((2-bromo-4-phenylthiazol-5-yl)oxy)pyridin-2-yl)amino)benzoate], the IC50 in experiment [1] was under 100 nM; in experiment [2], over 100 nM.
As to `O=C(O)c1cccc(Nc2cc(Oc3sc(Br)nc3-c3ccccc3)ccn2)c1` [A-171, 3-((4-((2-Bromo-4-phenylthiazol-5-yl)oxy)pyridin-2-yl)amino)benzoic acid], the IC50 in experiment [1] is under 100 nM; in experiment [2], over 100 nM.
Regarding `NC(=O)c1cccc(Nc2cc(Oc3sc(Br)nc3-c3ccccc3)ccn2)c1` [A-172, 3-((4-((2-Bromo-4-phenylthiazol-5-yl)oxy)pyridin-2-yl)amino)benzamide], the IC50 in experiment [1] and in experiment [2] was over 100 nM in each case.
With `O=C(O)c1ccc(Nc2cc(Oc3sc(C4CCCC4)nc3-c3ccccc3)ccn2)nc1` [A-174, 6-((4-((2-Cyclopentyl-4-phenylthiazol-5-yl)oxy)pyridin-2-yl)amino)nicotinic acid], the IC50 in experiment [1] is under 100 nM; in experiment [2], over 100 nM.
Take `O=C(O)c1ccc(Nc2cc(Oc3sc(C4CCCC4)nc3-c3ccccc3)ccn2)cc1` [A-175, 4-((4-((2-Cyclopentyl-4-phenylthiazol-5-yl)oxy)pyridin-2-yl)amino)benzoic acid]: the IC50 is under 100 nM in experiment [1] and over 100 nM in experiment [2].
For `CNC(=O)c1ccc(Nc2cc(Oc3sc(C4CCCC4)nc3-c3ccccc3)ccn2)nc1` [A-176, 6-((4-((2-Cyclopentyl-4-phenylthiazol-5-yl)oxy)pyridin-2-yl)amino)-N-methylnicotinamide], the IC50 in experiment [1] and in experiment [2] was over 100 nM throughout.
`NC(=O)c1ccc(Nc2cc(Oc3sc(C4CCCCC4)nc3-c3ccccc3)ccn2)nc1` [A-177, 6-((4-((2-Cyclohexyl-4-phenylthiazol-5-yl)oxy)pyridin-2-yl)amino)nicotinamide]: the IC50 in experiment [1] and in experiment [2] was over 100 nM in each case.
For the compound `O=C(O)c1ccc(Nc2cc(Oc3sc(C4CCCCC4)nc3-c3ccccc3)ccn2)nc1` [A-178, 6-((4-((2-cyclohexyl-4-phenylthiazol-5-yl)oxy)pyridin-2-yl)amino)nicotinic acid], the IC50 in experiment [1] and in experiment [2] was over 100 nM in each case.
Turning to `O=C(O)c1ccc(Nc2cc(Oc3sc(C4CCCCC4)nc3-c3ccccc3)ccn2)cc1` [A-179, 4-((4-((2-Cyclohexyl-4-phenylthiazol-5-yl)oxy)pyridin-2-yl)amino)benzoic acid], the IC50 in experiment [1] and in experiment [2] was over 100 nM each time.
On to `CNC(=O)c1ccc(Nc2cc(Oc3sc(C4CCCCC4)nc3-c3ccccc3)ccn2)nc1` [A-180, 6-((4-((2-Cyclohexyl-4-phenylthiazol-5-yl)oxy)pyridin-2-yl)amino)-N-methylnicotinamide], for which the IC50 in experiment [1] and in experiment [2] was over 100 nM in each case.
Regarding `CCc1nc(-c2ccccc2)c(Oc2ccnc(Nc3cccc(S(N)(=O)=O)c3)c2)s1` [A-181, 3-((4-((2-Ethyl-4-phenylthiazol-5-yl)oxy)pyridin-2-yl)amino)benzenesulfonamide], the 50% inhibitory concentration (IC50) in experiment [1] and in experiment [2] was under 100 nM throughout.
